The values that follow come from publication PMC6222307, “Phenanthrenes from Juncus Compressus Jacq. with Promising Antiproliferative and Anti-HSV-2 Activities” (Molecules : A Journal of Synthetic Chemistry and Natural …, 2018).

One series deals with SiHa cells. Briefly: MTT antiproliferative assay, SiHa. The series is classed as cell-based, human. Conditions: 72 h; for inhibition at 10 µM / inhibition at 30 µM: Homo sapiens, read-out: Growth Inhibition (%) ± SEM. The protocol:
(§1) The isolated phenanthrenes (Compounds 1–9) were tested for their antiproliferative activity against three human tumor cell lines (HeLa and SiHa (cervix adenocarcinoma) and A2780 (ovarian carcinoma)) using the 3-(4,5-dimethylthiazol-2-yl)-2,5-diphenyltetrazolium bromide (MTT) test with cisplatin as a positive control (Table 3). […] Based on the presented results, some structure-activity relationships could be obtained. […] Compounds bearing free hydroxy groups (in case of Compound 3) exerted more pronounced action than its methyl ether (Compound 7) or its oxymethylene derivative (Compound 6). The substantial difference in the activities of the isolated dimers (Compounds 2 and 8) could be attributed to the presence of a methyl group at C-6, which is favored in the monomers, too. Both the other cell lines were substantially less sensitive. […] Similarly, none of the presented agents elicited substantial (>40%) inhibition of the cell cancer proliferation during the applied 72 h of incubation against SiHa cells at 10 μM, and therefore, IC50 values were not determined.
(§2) The antiproliferative properties of the isolated phenanthrenes were determined on a panel of human malignant cell lines isolated from cervical (HeLa and SiHa) and ovarian cancers (A2780) purchased from the European Collection of Cell Cultures (ECCAC, Salisbury, UK). Cells were cultivated in minimal essential medium supplemented with 10% fetal bovine serum, 1% non-essential amino acids and an antibiotic-antimycotic mixture. All media and supplements were obtained from Lonza Group Ltd., (Basel, Switzerland). Near-confluent cancer cells were seeded onto a 96-well microplate (5000 cells/well) and after an overnight standing, medium containing the tested compounds at 10 and 30 µM was added. After incubation for 72 h under cell culture conditions, the living cells were assayed by the addition of 20 µL of 5 mg/mL 3-(4,5-dimethylthiazol-2-yl)-2,5-diphenyltetrazolium bromide (MTT) solution. MTT was converted by intact mitochondrial enzymes and precipitated as purple crystals during a 4 h contact period. The medium was then removed and the formazan was dissolved in 100 µL of DMSO during a 60 min period of shaking at 37 °C. Finally, the reduced MTT was assayed at 545 nm using a microplate reader. […] All in vitro experiments were carried out on two microplates with five parallel wells. Stock solutions of the tested compounds (10 mM) were prepared in DMSO. […] Cisplatin (Ebewe Pharma GmbH, Unterach, Austria) was used as a reference agent.
In general terms: Formazan colour is commonly taken as a measure of viable cells.

Series [1] has as its system HeLa cells. Briefly: MTT antiproliferative assay, HeLa. The series is classed as cell-based, human. Conditions: 72 h; for inhibition at 10 µM / inhibition at 30 µM: read-out: Growth Inhibition (%) ± SEM; for IC50: read-out: Calculated IC50 Value. The procedure: as §1, §2
The subject of another series is A2780 cells. Description: MTT antiproliferative assay, A2780. The series is classed as cell-based, human. The following applies: for inhibition at 10 µM / inhibition at 30 µM: read-out: Growth Inhibition (%) ± SEM; for IC50: read-out: Calculated IC50 Value. The procedure: as §1, §2
In series [2] the test system is MCF-7 cells. Also on record: method as in PMID 26584913. Conditions: cited from earlier work.
For series [3], the system named is HeLa cells. Also on record: method as in PMID 23979834. Conditions: read-out: cytotoxic activity; cited from earlier work.
The test system of series [4] is MCF-7 cells. More on the design: method as in PMID 23979834. Conditions: read-out: cytotoxic activity; cited from earlier work.
In series [5] the test system is HeLa cells. More on the design: method as in PMID 26584913. Conditions: cited from earlier work.
In series [6] the test system is HepG2 (liver hepatocellular carcinoma). Also on record: method as in PMID 26584913. The following applies: cited from earlier work.
The next series deals with HepG2. More on the design: method as in PMID 26072042. Conditions: HepG2, CCK-8 assay; cited from earlier work.
In another series the test system is SMMC-7721. More on the design: method as in PMID 26072042. The following applies: SMMC-7721, CCK-8 assay; cited from earlier work.
The subject of the next series is MCF-7. More on the design: method as in PMID 26072042. Conditions: MCF-7, CCK-8 assay; cited from earlier work.
A further series concerns HSV-2. More on the design: method as in PMID 11463529. The following applies: 6.25 µM; cited from earlier work.
[7] abbreviates: Homo sapiens, A2780, 10 μM, 72 h, MTT.
Where [8] appears, read: Homo sapiens, A2780, 30 μM, 72 h, MTT.

Molecules are shown by their SMILES. Like-named read-outs stand apart in the source and are kept apart here.

Usually inhibition stands for the relative decrease from the control value, in per cent. Regarding `COC(C)c1cc(O)cc2c1-c1ccc(O)c(C)c1CC2` (stereo not drawn) [Compound 4, effususol], the inhibition at 10 µM in the series on SiHa cells (10 μM, MTT) is below 10%; with HeLa cells [1] (Homo sapiens, 10 μM, MTT), below 10%; in the series on A2780 cells (setting [7]), 18.3 ± 0.42%. Moreover, the inhibition at 30 µM came out at 14.2 ± 2.75% with SiHa cells (30 μM, MTT); 30.4 ± 1.91% with HeLa cells [1] (Homo sapiens, 30 μM, MTT); 72 ± 1.06% in the series on A2780 cells (setting [8]).
`N.N.[Cl][Pt][Cl]` [Cisplatin, reference compound]: the “Growth Inhibition (%) ± SEM” value was 88.64 ± 0.50% with SiHa cells (10 μM, MTT); 90.18 ± 7.78% with SiHa cells (30 μM, MTT); 42.61 ± 2.33% in the series with HeLa cells [1] (10 μM, MTT); 99.93 ± 0.26% in the series on HeLa cells [1] (30 μM, MTT); 83.57 ± 1.21% with A2780 cells (A2780, 10 μM, 72 h, MTT); 95.02 ± 0.28% in the series on A2780 cells (A2780, 30 μM, 72 h, MTT). Also, the IC50 with SiHa cells (MTT, read-out: Calculated IC50 Value) is 7.84 µM; with HeLa cells [1] (MTT), 12.4 µM; with A2780 cells (A2780, 72 h, MTT), 1.3 µM.
Regarding `C=Cc1cc(O)cc2ccc3c(C)c(O)ccc3c12` [Compound 9, dehydroeffusol], in the series with SiHa cells, the inhibition at 10 µM is below 10% and the inhibition at 30 µM turned out to be 28.7 ± 2.01%. In the series with HeLa cells [1] (Homo sapiens), the IC50 is 7.75 µM, the inhibition at 10 µM turned out to be 75.2 ± 2.48% and the inhibition at 30 µM was found to be 96.5 ± 0.32%. In the series on A2780 cells (Homo sapiens, A2780, 72 h), the inhibition at 10 µM is below 10% and the inhibition at 30 µM is 57.3 ± 2.58%.
For `C=Cc1cc(O)cc2c1-c1cc(-c3cc4c(c(C)c3O)CCc3cc(O)cc(C=C)c3-4)c(O)c(C)c1CC2` [Compound 8, effususin A], the inhibition at 10 µM with SiHa cells (10 μM, MTT) was below 10%; in the series with HeLa cells [1] (Homo sapiens, 10 μM, MTT) it was below 10%; in the series with A2780 cells (setting [7]) it was below 10%. Also, the inhibition at 30 µM in the series with SiHa cells (30 μM, MTT) was 14.4 ± 1.48%; in the series with HeLa cells [1] (Homo sapiens, 30 μM, MTT), 10.4 ± 0.47%; in the series with A2780 cells (setting [8]) it was 72.7 ± 1.82%.
`C=Cc1cc(O)cc2c1-c1ccc(OC)c(C)c1CC2` [Compound 7, 7-hydroxy-1-methyl-2-methoxy-5-vinyl-9,10-dihydrophenanthrene]: the inhibition at 10 µM is 14.2 ± 0.98% in the series on SiHa cells (10 μM, MTT); 45.4 ± 1.57% in the series with HeLa cells [1] (Homo sapiens, 10 μM, MTT); below 10% in the series on A2780 cells (setting [7]). Also, the inhibition at 30 µM worked out at 29.5 ± 3.36% in the series on SiHa cells (30 μM, MTT); 92.36 ± 0.23% in the series on HeLa cells [1] (Homo sapiens, 30 μM, MTT); 63.2 ± 2.54% in the series on A2780 cells (setting [8]). Further, the IC50 with HeLa cells [1] (Homo sapiens, MTT) was 10.7 µM.
With `COC(C)c1cc(O)cc2ccc3c(C)c(O)ccc3c12` (stereo not drawn) [5-(1-methoxyethyl)-1-methyl-phenanthren-2,7-diol], the IC50 in the series with MCF-7 cells [2] is 10.9 µM.
As for `COc1cccc2c1C(=O)c1c(O)c3c(c(O)c1C2=O)C[C@@](O)(C(=O)CO)C[C@@H]3O[C@H]1C[C@H](N)[C@H](O)[C@H](C)O1` [adriamycin, reference compound], the IC50 in the series with HeLa cells [3] was 0.539 µM; with MCF-7 cells [4] it was 0.406 µM.
Regarding `Cc1c(O)ccc2c1ccc1cc(O)cc(C=O)c12` [Dehydroeffusal], the IC50 is 13.1 µM in the series with HeLa cells [5] and 12.4 µM in [6].
As for `C=Cc1c(C)c(O)cc2c1-c1cc(-c3cc4c(c(C)c3O)CCc3cc(O)c(C)c(C=C)c3-4)c(O)c(C)c1CC2` [Compound 2, compressin B], the inhibition at 10 µM in the series on SiHa cells (10 μM, MTT) is below 10%; in the series with HeLa cells [1] (Homo sapiens, 10 μM, MTT), 92.03 ± 0.44%; in the series with A2780 cells (setting [7]), below 10%. The inhibition at 30 µM was 32.8 ± 0.88% in the series with SiHa cells (30 μM, MTT); 92.38 ± 0.15% with HeLa cells [1] (Homo sapiens, 30 μM, MTT); 64.8 ± 1.95% with A2780 cells (setting [8]). In addition, the IC50 in the series on HeLa cells [1] (Homo sapiens, MTT) is 1.86 µM.
Take `C=Cc1cc(O)cc2c1-c1cc(-c3c(O)cc(C=C)c4c3ccc3c(C)c(O)ccc34)c(O)c(C)c1CC2` [effususin B]: the IC50 with HepG2 is 12.9 µM; in the series on SMMC-7721, 13.6 µM; in the series on MCF-7 it was 12.5 µM.
As for `Nc1nc2c(ncn2COCCO)c(=O)[nH]1` [acyclovir], the “reduction of HSV-2 yield” value in the series on HSV-2 is 1–5.06 log10.
Consider `Cc1c(O)ccc2c1CCc1cc(O)cc(C=O)c1-2` [2,7-dihydroxy-1-methyl-5-aldehyde-9,10-dihydrophenanthrene], for which the figures for the IC50 in the series on HeLa cells [3] and with MCF-7 cells [4] were 19.6 µM and 9.17 µM, respectively.
On to `CC(=O)O[C@H]1C(=O)[C@@]2(C)[C@H]([C@H](OC(=O)c3ccccc3)[C@]3(O)C[C@H](OC(=O)[C@H](O)[C@@H](NC(=O)c4ccccc4)c4ccccc4)C(C)=C1C3(C)C)[C@]1(OC(C)=O)CO[C@@H]1C[C@@H]2O` [paclitaxel, reference compound], for which the IC50 in the series with HepG2 is 36.8 µM; in the series with SMMC-7721, 0.09 µM; in the series with MCF-7 it was 28.6 µM.
As for `C=Cc1c(C)c(O)cc2c1-c1ccc(OC)c(C)c1CC2` [Compound 1, compressin A], the inhibition at 10 µM in the series on SiHa cells (10 μM, MTT) is below 10%; in the series on HeLa cells [1] (Homo sapiens, 10 μM, MTT), 41.7 ± 1.1%; with A2780 cells (setting [7]) it was 47.6 ± 1.58%. Further, the inhibition at 30 µM in the series with SiHa cells (30 μM, MTT) was determined as 38.6 ± 0.78%; in the series on HeLa cells [1] (Homo sapiens, 30 μM, MTT) it was 93.73 ± 0.36%; in the series with A2780 cells (setting [8]) it was 73 ± 0.47%. The IC50 is 11.3 µM in the series with HeLa cells [1] (Homo sapiens, MTT) and 13.2 µM in the series with A2780 cells (Homo sapiens, A2780, 72 h, MTT).
On to `C=Cc1cc(CO)cc2c1-c1ccc(O)c(C)c1CC2` [Compound 6, 2-hydroxy-1-methyl-7-oxymethylene-5-vinyl-9,10-dihydrophenanthrene], for which the inhibition at 10 µM with SiHa cells (10 μM, MTT) was below 10%; in the series on HeLa cells [1] (Homo sapiens, 10 μM, MTT), 96.8 ± 0.28%; in the series on A2780 cells (setting [7]), below 10%. Moreover, the inhibition at 30 µM in the series on SiHa cells (30 μM, MTT) was 10.2 ± 1.47%; in the series on HeLa cells [1] (Homo sapiens, 30 μM, MTT), 98.77 ± 0.24%; with A2780 cells (setting [8]), below 10%. For the same compound, the IC50 in the series on HeLa cells [1] (Homo sapiens, MTT) was 4.17 µM.
With `C=Cc1cc(O)cc2c1-c1ccc(O)c(C)c1CC2` [Compound 3, effusol], the inhibition at 10 µM is below 10% with SiHa cells (10 μM, MTT); 96.37 ± 0.28% with HeLa cells [1] (Homo sapiens, 10 μM, MTT); below 10% in the series with A2780 cells (setting [7]). Also, the inhibition at 30 µM in the series with SiHa cells (30 μM, MTT) was below 10%; in the series on HeLa cells [1] (Homo sapiens, 30 μM, MTT), 97.77 ± 0.27%; with A2780 cells (setting [8]), 50.5 ± 1.59%. In addition, the IC50 with HeLa cells [1] (Homo sapiens, MTT) is 3.68 µM.
